Test results published in patent publication US8709445B2, “Vaccination with killed but metabolically active (KBMA) protozoans with toll-like receptor agonists” (priority 2007, dated 2014).
Entries after “also recorded” stand apart in the source; their conditions may differ.

Experiments:
Leishmania chagasi = assay: In vitro luciferase assay of parasite metabolic activity after S-59 and UVA; format: cell-based
Experimental: The L. chagasi strain (MHOM/BR/00/1669), originally isolated from a patient with visceral leishmaniasis in Northeast Brazil, was maintained by serial intracardiac injection in outbred male golden hamsters. Virulent amastigotes were isolated from hamster spleens removed from animals infected approximately 3 months prior to sacrifice. Promastigotes were cultured in hemoflagellate minimal essential medium (HOMEM) at 26° C. and were used for vaccination or challenge within one month of harvest from the hamsters. Killed But Metabolically Active (KBMA) promastigotes were prepared by incubating late-log or stationary phase organisms in amotosalen (S-59) 100 nM for one hour while shaking at room temperature, followed by cross-linking of DNA using UVA irradiation of aliquots of 2 ml of cells in 6 well plates in an Intercept Illuminator (Cerus Corporation). Radiation dose was 5.4 J/cm^2. Heat-killed organisms were prepared by incubating in a 100° C. bath for 10 minutes. Transgenic firefly luciferase expressing L. chagasi and L. major were kindly provided by Dr. Beverley. For CFSE-based flow cytometry experiments, promastigotes were stained with CFSE at 5 μM and, shaken at 37° C. for 10 minutes. Parasites were washed three times with PBS and then cultured at an initial concentration of 5×10^6 per ml in HOMEM for in vitro experiments or injected into mice in 200 μL, of PBS at a concentration of 5×10^8 per ml.
Serial measures of parasite luciferase activity were made using a Sirius Single Tube Luminometer (Berthold Detection Systems). Aliquots of cultured organisms were taken daily and combined with 5× reporter lysis buffer per the manufacturer's instructions, and frozen at −80° C. All samples were then snap-thawed at 37° C. on the day of assay. 50 μl samples from each aliquot were combined with 100 μl of luciferin and luminescence was quantified with the luminometer in relative luminsescence units (RLU).
A mouse visceral leishmaniasis model employing Leishmania chagasi expressing firefly luciferase was used to test the susceptibility of a eukaryotic pathogen to in vitro inactivation?). L. chagasi were treated with varying doses of S-59 for 1 hour and then exposed to 5.4 J/cm2 UVA using a commercial illuminator which delivers tightly metered UVA doses to a shaking flask of organisms. This UVA dose was determined based on prior experience with Listeria. After irradiation with UVA, parasites were kept in culture and assayed at various time points for luciferase expression as a measure of metabolic activity. […] To determine if the S-59 induced decline in luciferase activity was associated with an inability to replicate, live L. chagasi promastigotes were stained with the intracellular dye CFSE and monitored for 1 week in culture.

L. chagasi promastigotes = assay: CFSE flow cytometry of promastigote replication in culture; format: cell-based, Leishmania chagasi; conditions: 100 nM S-59 and 5.4 Joules/cm^2 UVA; days 1-7 in culture
Experimental: The L. chagasi strain (MHOM/BR/00/1669), originally isolated from a patient with visceral leishmaniasis in Northeast Brazil, was maintained by serial intracardiac injection in outbred male golden hamsters. Virulent amastigotes were isolated from hamster spleens removed from animals infected approximately 3 months prior to sacrifice. Promastigotes were cultured in hemoflagellate minimal essential medium (HOMEM) at 26° C. and were used for vaccination or challenge within one month of harvest from the hamsters. Killed But Metabolically Active (KBMA) promastigotes were prepared by incubating late-log or stationary phase organisms in amotosalen (S-59) 100 nM for one hour while shaking at room temperature, followed by cross-linking of DNA using UVA irradiation of aliquots of 2 ml of cells in 6 well plates in an Intercept Illuminator (Cerus Corporation). Radiation dose was 5.4 J/cm^2. […]
A mouse visceral leishmaniasis model employing Leishmania chagasi expressing firefly luciferase was used to test the susceptibility of a eukaryotic pathogen to in vitro inactivation?). […] This UVA dose was determined based on prior experience with Listeria. […] To determine if the S-59 induced decline in luciferase activity was associated with an inability to replicate, live L. chagasi promastigotes were stained with the intracellular dye CFSE and monitored for 1 week in culture.

L. chagasi = format: in vivo, Leishmania chagasi; conditions: for protection (reduction in liver parasite load): pilot experiment, combination of subcutaneous KBMA-LC and topically applied TLR agonist
Experimental: On the day prior to each vaccination, mice were anesthetized by intraperitoneal injection of 0.2 ml a solution of ketamine 9.1 mg/ml and xylazine 0.73 mg/ml. A 2×3 cm patch of fur in the dorsal cervical area was shaved, and 50 mg of adjuvant cream—either imiquimod 5% cream or appropriate vehicle (3M Pharmaceuticals)—was applied topically to the shaved area. On the day of immunization, mice were anesthetized as above. Unfractionated late-log to stationary phase promastigotes (live or KBMA) were spun at 2000 g for 10 minutes, resuspended in PBS, counted on a Neubauer hemocytometer, and volume-adjusted to a final concentration of 10^8 organisms/ml. One hundred micoliters of the appropriate parasite suspension (10^7 organisms) or 100 μl of PBS for controls was subcutaneously injected into the dorsal-cervical area of anesthetized mice using a 28-gauge needle. Adjuvant cream was then applied at the shaved skin site as above. On the day after immunization, adjuvant cream was once again applied topically as above on unanesthetized mice. For each experiment, mice were immunized three times at two-week intervals. Two weeks after the final immunization, mice were challenged by intravenous injection with 10^7 unfractionated late-log to stationary phase promastigotes in 0.2 ml of PBS.
Vaccinated mice were sacrificed by CO2 inhalation 4 weeks after intravenous challenge. Livers and spleens were weighed. Impression smears on glass slides were made from dissected spleen and liver tissue and were then methanol-fixed and amastigotes were detected with Giemsa stain. Organ parasite load was scored by direct microscopy and rendered in Leishman-Donavan Units (LDU), defined as number of parasites divided by number of mammalian cells multiplied by the organ mass in milligrams. At least 500 mammalian cells or 500 parasites were counted by a scorer blinded to the vaccination groups.

splenocytes = assay: Luminex cytokine production in splenocytes from immunized mice; format: in vivo, BALB/c mice
Experimental: FIG. 11C: Luminex quantitation of cytokine production in splenocytes from L. chagasi immunized BALB/c mice with or without adjuvant 5% imiquimod. Mice were immunized three times at two week as in FIG. 10. Two weeks after the final vaccination, animals were sacrificed and 10^6 splenocytes from each were cultured for 66 hours in either in the presence of live L. chagasi. Supernatants from these cultures were frozen and then subsequently thawed and analyzed by the luminex method using antibodies and antibody coated beads specific for the indicated cyotokines. Bars show concentration of the relevant cytokine in pg/ml+/−SEM.
In a parallel experiment, groups of mice were vaccinated and boosted twice as described above. Splenocytes were harvested from these animals 2 weeks after the third vaccination. Splenocytes were then stimulated with either live LC promastigotes or soluble L. chagasi antigen (SLA) for 66 hours in culture and supernatants were harvested.

Row | Structure (SMILES) | time by which all detectable metabolic activity was abolished (Leishmania chagasi; 10^7 promastigotes, 100 nM S-59 and 5.4 Joules/cm^2 UVA) | luciferase activity by day 21 (Leishmania chagasi; 100 nm S-59 and UVA, culture inoculated at 10^7 per ml) | effect of higher doses of S-59 on luciferase activity (Leishmania chagasi; doses higher than 100 nM, with UVA, data not shown) | S-59 dose leading to breakthrough outgrowth of parasites (Leishmania chagasi; with 5.4 J/cm2 UVA, data not shown) | replication of CFSE stained promastigotes (per parasite fluorescence) (L. chagasi promastigotes) | protection (reduction in liver parasite load) (L. chagasi) | effect of adjuvant only (L. chagasi; Example 3, imiquimod 5% without whole cell vaccine (PBS)) | effect of adjuvant cream compared to control vehicle cream (L. chagasi; Example 3, topical 5% cream in each vaccination group) | pattern of cytokine expression, whole cell vaccines with adjuvant versus vehicle (splenocytes; imiquimod 5% with whole cell vaccines) | cytokine production, PBS with adjuvant versus PBS with vehicle (splenocytes; imiquimod 5% without whole cell vaccine)
1 | Cc1oc2c(C)c3oc(=O)cc(C)c3cc2c1COCCN [S-59, amotosalen] | ≤ 3 weeks | approaches baseline luminescence from PBS | more rapid decline in luciferase activity | lower than 50 nM | no such diminution; also recorded: arrests replication | – | – | – | – | –
2 | CCOCc1nc2c(N)nc3ccccc3c2n1CC(C)(C)O [resiquimod, 4-Amino-2-(ethoxymethyl)-a,a-dimethyl-1H-imidazo[4,5-c]quinoline-1-ethanol] | – | – | – | – | – | 87% | – | – | – | –
3 | CC(C)Cn1cnc2c(N)nc3ccccc3c21 [imiquimod, 1-isobutyl-1H-imidazo[4,5-c]quinolin-4-amine] | – | – | – | – | – | 68% | trend towards a protective effect | additional protection | increased IFN-γ but decreased IL-10, IL-4, and IL-5 | no increase in cytokine production
